Results on two compounds are retold here after patent US20220298222A1, “COMBINATION THERAPY OF A T CELL THERAPY AND AN ENHANCER OF ZESTE HOMOLOG 2 (EZH2) INHIBITOR AND RELATED METHODS” (Juno Therapeutics, Inc., priority 2019, published 2022).

The test system of data set [1] is GCB cell lines (WSU-DLCL2, Farage, KARPAS-422, and SU-DHL-5). The data set is described as follows: Cell viability by ATP luminescence-based assay, GCB cell lines. Conditions: 6 days; 1.0 μM EPZ-6438, 0.1 μM or 1.0 μM CPI-1205; mutant and wild type GCB cell lines.
Procedure: (§1) Cell viability was determined based on the amount of ATP quantified by a luminescence-based assay.
For data set [2], the system named is ABC cell lines (SU-DHL-2 and OCI-LY3). The data set is described as follows: Cell viability by ATP luminescence-based assay, ABC cell lines. Conditions: 6 days, 1.0 μM EPZ-6438, 0.1 μM or 1.0 μM CPI-1205, wild type EZH2.
Procedure: as §1
In data set [3] the test system is H3K27Me3 in GCB (WSU-DLCL2, Farage, KARPAS-422, SU-DHL-5) and ABC (SU-DHL-2, OCI-LY3) DLBCL cell lines. The data set is described as follows: H3K27Me3 levels by Western blot in GCB and ABC DLBCL cell lines, two EZH2 inhibitors. Format: cell-based. Conditions: 6 days; 0.1 or 1.0 μM; all GCB and ABC cell lines tested. In general terms: In western blotting, separated proteins are transferred to a membrane and probed.

For data set [4] the following is noted: cited from earlier work.

Take `COc1cc(C)[nH]c(=O)c1CNC(=O)c1c(C)n([C@H](C)C2CCN(CC(F)(F)F)CC2)c2ccccc12` [CPI-1205]: the “cell viability (ATP)” value in data set [1] was “decreased cell viability”; in data set [2], “resistant”. Also, in data set [3], the “H3K27Me3 levels (Western blot)” value is given as “decreased H2K27Me3 levels”.
As to `CCN(c1cc(-c2ccc(CN3CCOCC3)cc2)cc(C(=O)NCc2c(C)cc(C)[nH]c2=O)c1C)C1CCOCC1` [tazemetostat], the “recommended phase II dose” value in data set [4] (twice daily (BID) or three times daily (TID) for 28-day cycles, subjects with R/R B-cell non-Hodgkin lymphoma or an advanced solid tumor) is on record as 800 mg. Further, the “maximum tolerated dose (MTD)” value in data set [4] (twice daily, human subjects, R/R B-cell lymphoma, 28-day cycles) is on record as 800 milligrams.
